Results taken from PubChem BioAssay AID180 (DTP/NCI, 2004).
Where “and” joins values, the source holds several entries; their conditions need not be identical. Equal entries are not always repeated.

System: BDF1 mice, Adenocarcinoma 755 s.c., tumor weight T/C
Experiment: NCI In Vivo Anticancer Drug Screen. Data for tumor model Adenocarcinoma 755 (subcutaneous) in B6D2F1 (BDF1) mice
Conditions: endpoint: mean tumor weight, higher = larger tumour
Summary of the method: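 Tumor-bearing mice receive test compound while controls get vehicle alone. Antitumor effect is scored from survival or tumor dimensions as a T/C quotient.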

[1] = dose: 25.0 mg/kg/injection, schedule: Q01DX011 (ip), vehicle: methylcellulose (MC)
[2] = dose: 75.0 mg/kg/injection, schedule: Q01DX011 (ip), vehicle: methylcellulose (MC)

Structure (SMILES): CC1CN1P(=O)(Oc1ccccc1)N1CC1C (centres undefined)
- T/C (dose: 12.5 mg/kg/injection, schedule: Q01DX011 (ip), vehicle: saline): 89 % of control and 106 % of control
- T/C (dose: 25.0 mg/kg/injection, schedule: Q01DX011 (ip), vehicle: saline): 90 % of control and 78 % of control
- T/C (dose: 50.0 mg/kg/injection, schedule: Q01DX011 (ip), vehicle: saline): 42 % of control and 50 % of control

Structure (SMILES): Nc1nc(SCc2ccccc2Cl)c2ncn(C3CCCCC3)c2n1
- T/C [1]: 180 % of control
- T/C [2]: 166 % of control

Structure (SMILES): Clc1ccccc1CSc1ncnc2nc[nH]c12
- T/C (dose: 5.0 mg/kg/injection, schedule: Q01DX011 (ip), vehicle: other): 11 % of control
- T/C (dose: 10.0 mg/kg/injection, schedule: Q01DX011 (ip), vehicle: other): 2 % of control
- T/C (dose: 31.0 mg/kg/injection, schedule: Q01DX011 (ip), vehicle: other): 12 % of control
- T/C (dose: 62.0 mg/kg/injection, schedule: Q01DX011 (ip), vehicle: other): 3 % of control
- T/C (dose: 125.0 mg/kg/injection, schedule: Q01DX011 (ip), vehicle: other): 3 % of control

Structure (SMILES): CCCCCn1cnc2c(=S)nc[nH]c21
- T/C (dose: 31.0 mg/kg/injection, schedule: Q01DX011 (ip), vehicle: carboxymethylcellulose (CMC)): 94 % of control
- T/C (dose: 62.0 mg/kg/injection, schedule: Q01DX011 (ip), vehicle: carboxymethylcellulose (CMC)): 78 % of control
- T/C (dose: 125.0 mg/kg/injection, schedule: Q01DX011 (ip), vehicle: carboxymethylcellulose (CMC)): 43 % of control
- T/C (dose: 250.0 mg/kg/injection, schedule: Q01DX011 (ip), vehicle: carboxymethylcellulose (CMC)): 10 % of control
- T/C (dose: 500.0 mg/kg/injection, schedule: Q01DX011 (ip), vehicle: carboxymethylcellulose (CMC)): 6 % of control

Structure (SMILES): C1CN1c1nc(N2CC2)nc(N2CC2)n1
- T/C (dose: 0.03 mg/kg/injection, schedule: Q01DX011 (ip), vehicle: carboxymethylcellulose (CMC)): 90 % of control
- T/C (dose: 0.05 mg/kg/injection, schedule: Q01DX011 (ip), vehicle: carboxymethylcellulose (CMC)): 80 % of control
- T/C (dose: 0.1 mg/kg/injection, schedule: Q01DX011 (ip), vehicle: carboxymethylcellulose (CMC)): 36 % of control
- T/C (dose: 0.1 mg/kg/injection, schedule: Q02DX011 (ip), vehicle: carboxymethylcellulose (CMC)): 65 % of control
- T/C (dose: 0.2 mg/kg/injection, schedule: Q02DX011 (ip), vehicle: carboxymethylcellulose (CMC)): 49 % of control
- T/C (dose: 0.5 mg/kg/injection, schedule: Q01DX011 (ip), vehicle: saline): 8 % of control
- T/C (dose: 49.0 micrograms/kg/injection, schedule: Q01DX011 (ip), vehicle: carboxymethylcellulose (CMC)): 86 % of control
- T/C (dose: 67.0 micrograms/kg/injection, schedule: Q01DX011 (ip), vehicle: carboxymethylcellulose (CMC)): 213 % of control
- T/C (dose: 98.0 micrograms/kg/injection, schedule: Q01DX011 (ip), vehicle: carboxymethylcellulose (CMC)): 88 % of control
- T/C (dose: 134.0 micrograms/kg/injection, schedule: Q01DX011 (ip), vehicle: carboxymethylcellulose (CMC)): 101 % of control
- T/C (dose: 150.0 micrograms/kg/injection, schedule: Q01DX011 (ip), vehicle: saline): 63 % of control
- T/C (dose: 260.0 micrograms/kg/injection, schedule: Q01DX011 (ip), vehicle: carboxymethylcellulose (CMC)): 57 % of control and 77 % of control
- T/C (dose: 268.0 micrograms/kg/injection, schedule: Q01DX011 (ip), vehicle: carboxymethylcellulose (CMC)): 82 % of control
- T/C (dose: 300.0 micrograms/kg/injection, schedule: Q01DX011 (ip), vehicle: saline): 33 % of control
- T/C (dose: 536.0 micrograms/kg/injection, schedule: Q01DX011 (ip), vehicle: carboxymethylcellulose (CMC)): 18 % of control
- T/C (dose: 600.0 micrograms/kg/injection, schedule: Q01DX011 (ip), vehicle: saline): 7 % of control

Structure (SMILES): CC1CCN(C(=O)CCCl)c2ccccc21 (centres undefined)
- T/C [1]: 101 % of control
- T/C [2]: 71 % of control
- T/C (dose: 225.0 mg/kg/injection, schedule: Q01DX011 (ip), vehicle: methylcellulose (MC)): 82 % of control

Structure (SMILES): C=C1CN(CC)CCO1
- T/C (dose: 50.0 mg/kg/injection, schedule: Q01DX011 (ip), vehicle: other): 73 % of control
- T/C (dose: 100.0 mg/kg/injection, schedule: Q01DX011 (ip), vehicle: other): 72 % of control

Structure (SMILES): CC(=O)NNC(=O)c1ccccn1
- T/C (dose: 75.0 mg/kg/injection, schedule: Q01DX011 (ip), vehicle: water): 68 % of control
- T/C (dose: 100.0 mg/kg/injection, schedule: Q01DX011 (ip), vehicle: water): 37 % of control

Structure (SMILES): COc1ccc(CSc2ncnc3nc[nH]c23)cc1
- T/C (dose: 1.5 mg/kg/injection, schedule: Q01DX011 (ip), vehicle: carboxymethylcellulose (CMC)): 89 % of control
- T/C (dose: 3.0 mg/kg/injection, schedule: Q01DX011 (ip), vehicle: carboxymethylcellulose (CMC)): 88 % of control
- T/C (dose: 6.0 mg/kg/injection, schedule: Q01DX011 (ip), vehicle: carboxymethylcellulose (CMC)): 65 % of control
- T/C (dose: 7.8 mg/kg/injection, schedule: Q01DX011 (ip), vehicle: methylcellulose (MC)): 58 % of control
- T/C (dose: 15.6 mg/kg/injection, schedule: Q01DX011 (ip), vehicle: methylcellulose (MC)): 13 % of control
- T/C (dose: 31.2 mg/kg/injection, schedule: Q01DX011 (ip), vehicle: methylcellulose (MC)): 10 % of control

Structure (SMILES): CCC(C)Cn1cnc2c(SCC(=O)O)nc(N)nc21 (centres undefined)
- T/C [1]: 78 % of control
- T/C (dose: 80.0 mg/kg/injection, schedule: Q01DX011 (ip), vehicle: methylcellulose (MC)): 43 % of control
- T/C (dose: 250.0 mg/kg/injection, schedule: Q01DX011 (ip), vehicle: methylcellulose (MC)): 45 % of control

Structure (SMILES): O=C1C(=O)C(Cl)=C(Cl)C(Cl)=C1Cl
- T/C (dose: 7.5 mg/kg/injection, schedule: Q01DX011 (ip), vehicle: carboxymethylcellulose (CMC)): 78 % of control
- T/C (dose: 15.0 mg/kg/injection, schedule: Q01DX011 (ip), vehicle: carboxymethylcellulose (CMC)): 90 % of control
- T/C (dose: 60.0 mg/kg/injection, schedule: Q01DX011 (ip), vehicle: carboxymethylcellulose (CMC)): 97 % of control

Structure (SMILES): CN(C)c1ccc2nc3ccc(=[N+](C)C)cc-3sc2c1
- T/C (dose: 5.0 mg/kg/injection, schedule: Q01DX011 (ip), vehicle: carboxymethylcellulose (CMC)): 51 % of control
- T/C (dose: 5.24 mg/kg/injection, schedule: Q01DX011 (ip), vehicle: carboxymethylcellulose (CMC)): 69 % of control
- T/C (dose: 5.76 mg/kg/injection, schedule: Q01DX011 (ip), vehicle: carboxymethylcellulose (CMC)): 103 % of control
- T/C (dose: 10.0 mg/kg/injection, schedule: Q01DX011 (ip), vehicle: carboxymethylcellulose (CMC)): 99 % of control
- T/C (dose: 10.48 mg/kg/injection, schedule: Q01DX011 (ip), vehicle: carboxymethylcellulose (CMC)): 109 % of control
- T/C (dose: 11.53 mg/kg/injection, schedule: Q01DX011 (ip), vehicle: carboxymethylcellulose (CMC)): 97 % of control
- T/C (dose: 20.0 mg/kg/injection, schedule: Q01DX011 (ip), vehicle: carboxymethylcellulose (CMC)): 113 % of control
- T/C (dose: 20.95 mg/kg/injection, schedule: Q01DX011 (ip), vehicle: carboxymethylcellulose (CMC)): 100 % of control
- T/C (dose: 25.0 mg/kg/injection, schedule: Q01DX011 (ip), vehicle: carboxymethylcellulose (CMC)): 123 % of control
- T/C (dose: 30.0 mg/kg/injection, schedule: Q01DX011 (ip), vehicle: carboxymethylcellulose (CMC)): 103 % of control
- T/C (dose: 35.0 mg/kg/injection, schedule: Q01DX011 (ip), vehicle: carboxymethylcellulose (CMC)): 104 % of control
- T/C (dose: 40.0 mg/kg/injection, schedule: Q01DX011 (ip), vehicle: carboxymethylcellulose (CMC)): 68 % of control

Structure (SMILES): CC(=O)[C@@]12OC(C)(C)O[C@@H]1C[C@H]1[C@@H]3C[C@H](C)C4=CC(=O)CC[C@]4(C)[C@H]3CC[C@@]12C
- T/C (dose: 56.0 mg/kg/injection, schedule: Q01DX011 (sc), vehicle: steriod suspending solution): 28 % of control
- T/C (dose: 62.0 mg/kg/injection, schedule: Q01DX011 (sc), vehicle: steriod suspending solution): 34 % of control
- T/C (dose: 75.0 mg/kg/injection, schedule: Q01DX011 (sc), vehicle: steriod suspending solution): 38 % of control
- T/C (dose: 113.0 mg/kg/injection, schedule: Q01DX011 (sc), vehicle: steriod suspending solution): 46 % of control
- T/C (dose: 125.0 mg/kg/injection, schedule: Q01DX011 (sc), vehicle: steriod suspending solution): 21 % of control
- T/C (dose: 150.0 mg/kg/injection, schedule: Q01DX011 (sc), vehicle: steriod suspending solution): 18 % of control
- T/C (dose: 225.0 mg/kg/injection, schedule: Q01DX011 (sc), vehicle: steriod suspending solution): 24 % of control
- T/C (dose: 250.0 mg/kg/injection, schedule: Q01DX011 (sc), vehicle: steriod suspending solution): 17 % of control
- T/C (dose: 300.0 mg/kg/injection, schedule: Q01DX011 (sc), vehicle: steriod suspending solution): 15 % of control
- T/C (dose: 450.0 mg/kg/injection, schedule: Q01DX011 (sc), vehicle: steriod suspending solution): 35 % of control
- T/C (dose: 600.0 mg/kg/injection, schedule: Q01DX011 (sc), vehicle: steriod suspending solution): 14 % of control
- T/C (dose: 900.0 mg/kg/injection, schedule: Q01DX011 (sc), vehicle: steriod suspending solution): 16 % of control

Structure (SMILES): NC(=O)OCCI
- T/C (dose: 3.1 mg/kg/injection, schedule: Q01DX011 (ip), vehicle: methylcellulose (MC)): 47 % of control
- T/C (dose: 12.5 mg/kg/injection, schedule: Q01DX011 (ip), vehicle: methylcellulose (MC)): 52 % of control and 61 % of control
- T/C [1]: 31 % of control and 47 % of control
- T/C (dose: 50.0 mg/kg/injection, schedule: Q01DX011 (ip), vehicle: methylcellulose (MC)): 7 % of control
- T/C (dose: 100.0 mg/kg/injection, schedule: Q01DX011 (ip), vehicle: methylcellulose (MC)): 1 % of control
